Data as given in patent US20240052133A1, “CHEMICAL RECYLING OF PLASTICS USING IONIC LIQUIDS OR DEEP EUTECTIC SOLVENTS” (THE REGENTS OF THE UNIVERSITY OF CALIFORNIA, priority 2022, published 2024).
Read-outs that look alike come from different tables or passages of the source.

Columns and labels:
[1] = test system: Pseudomonas putida KT2440; test: Pseudomonas putida KT2440 cell growth test (OD600) with different carbon sources; format: cell-based; details: for cell growth (cell concentration): synthetic solutions matching concentrations in the depolymerized polymers, versus 10 mM glucose control
Experimental: [38, 39, 44, 45]. […] This is likely due to the relatively high [Ch][Lys] concentration, where the [Ch][Lys] concentration is 4 wt %.
Due to the fact that the depolymerized PET/PLA comprises multiple carbon sources (e.g., TPA, LA, and [Ch][Lys]), it is essential to identify the major contributors for the cell growth. Two additional tests were performed. […] The depolymerized products were then diluted 20-fold to prepare the media for cell growth test. A media prepared with only [Ch][Lys] was used as the IL control.
To validate this hypothesis, a second cell growth test was conducted using synthetic TPA and LA as the media. TPA, LA, and TPA/LA mixture were prepared to match the concentrations in the depolymerized polymers. […] It can be concluded that Pseudomonas putida KT2440 is capable of catabolizing LA from depolymerized PLA and [Ch][Lys] as carbon sources, but lacks a natural metabolic pathway to consume TPA. So far, no natural terephthalate degradation pathway has been reported in Pseudomonas putida KT2440. This is consistent with our findings that TPA cannot support cell growth of Pseudomonas putida KT2440. A recent study has shown the success in engineering Pseudomonas putida KT2440 to catabolize TPA for different fermentation products. This opens the door to efficiently utilizing both TPA and LA from the depolymerized PET/PLA.
Pseudomonas putida KT2440 was inoculated as the seed culture at 30° C. overnight. The cell culture was spun down and washed with 3-(N-morpholino)propane sulfonic acid (MOPS) buffer for 5 times to remove the carbon sources. 1% cell resuspension was inoculated into 500 μL growth media in 48 well plates. The growth media included MOPS rich buffer (Teknova, #M2105) and 25 μg/mL Chloramphenicol, added with different carbon sources to support the cell growth (Table 4). Cell growths were monitored continuously at OD600 nm for 72-120 h in the plate reader (Biotek-Synergy, Y-H1) at 30° C., 570 rpm.

[2] = cited from earlier work
[3] = pH of the reaction solution before and after IL catalyzed depolymerization; format: physicochemical; details: for pH before reaction: IL systems 10 wt % in water, alkaline water adjusted with NaOH; for pH after reaction, PET: after depolymerization reaction of PET; for pH after reaction, PLA: after depolymerization reaction of PLA
Experimental: Hydrolytic depolymerization of PET and PLA involves chain scission of ester linkages, where a carboxyl end group is released. […] We hypothesized that the pH influenced by IL was the major driving force of PET and PLA depolymerization. To test the hypothesis, a set of control experiments were conducted using only water and alkaline water as the solvent. […] (with pH 11.8).

[4] = Hydrolytic depolymerization of PET using ILs in water
Experimental: (§1) Most of them are conventional imidazolium-based, including the ones that contain halometallates. With the progress in the IL research, economic and biocompatible cholinium-based ILs have attracted high interest.
(§2) […] […] The tube was immersed in a preheated oil bath at a desired temperature. Upon completion of the reaction, the tube was taken out from the oil bath and cooled to room temperature.
The reaction residue was transferred to a 50 mL falcon tube, where solid residue was recovered through centrifugation. The solid fraction was washed with 5 mL deionized water three times before being dried in a lyophilizer (Labconco, Kansas City, MO). The liquid fraction was sampled for product analysis. The depolymerization and product yield are defined as follows:
(§3) Depolymerization=Wsubstrate−W1Wsubstrate100%
(§4) Yield=Wproduct/MproductWsubstrate/Msubstrate×100%
(§5) Then 4 mM sulfuric acid was used as the mobile phase at a flow rate of 1.0 mL/min. The column oven temperature was maintained at 65° C.

[5] = Hydrolytic depolymerization of PLA using ILs in water
Experimental: as §1, §2
(§6) The reaction residue was transferred to a 50 mL falcon tube, where solid residue was recovered through centrifugation. […] The liquid fraction was sampled for product analysis. The depolymerization and product yield are defined as follows:
as §3, §4, §5

[6] = Depolymerization of PET/PLA mixtures (1:1 mass ratio) using [Ch][Lys]; details: 160° C.
From the text: As discussed previously, the current waste management facilities will not completely eliminate the PLA contamination when sorting PET for recycling. […] Chemical recycling is an alternative to mechanical recycling in regard to dealing with PLA contaminants. […] Given its high catalytic activity, [Ch][Lys] was selected as the IL in the reaction. It should be emphasized that [Ch][Lys] is a favorable choice not only because of its high depolymerization efficiency but also because it is economic, biocompatible, less toxic, and environmentally friendly.
The initial set of experiments was carried out at 160° C. for two hours. As shown in FIG. 4A and FIG. 4B, the depolymerization efficiency varied across different IL loadings. […] Meanwhile, the TPA yield turned to be negligible (1.5%) and the LA yield was merely 40.9%. The reasons are manifold.
Although [Ch][Lys] is considered as cost-competitive compared to other conventional ILs, IL usage is often the major cost contributor in the process economics. In order to explore the way to reduce IL loading, a set of experiments was conducted by increasing the reaction time from 2 h to 6 h. Overall, reaction time extension improved both depolymerization and product yields at low IL loadings (FIG. 4A, FIG. 4B and FIG. 4C). […].
The depolymerization reaction of polyesters were conducted in a 15 mL pressure tube (Ace Glass Inc., Vineland, NJ) at […] for one hour. […] The tube was immersed in a preheated oil bath at a desired temperature. Upon completion of the reaction, the tube was taken out from the oil bath and cooled to room temperature.
as §6, §3, §4
Terephthalic acid (TPA) and lactic acid (LA) were measured on a Thermo Scientific Ultimate 3000 HPLC (Waltham, MA, USA) equipped with a Bio-Rad Aminex HPX-87H column (300×7.8 mm, Hercules, CA, USA) and a Refractive Index (RI) detector. Then 4 mM sulfuric acid was used as the mobile phase at a flow rate of 1.0 mL/min. The column oven temperature was maintained at 65° C.

[7] = 160° C., 20% [Ch][Lys] loading, 6 hours
[8] = 180° C., 2 hours, 10% IL in water
[9] = 130° C., 2 hours, 10% IL in water
[10] = 90 wt % IL loading (no water), 2 h

## CC(O)C(=O)O (stereo not drawn) [LA, lactic acid]
[1]
  cell growth (cell concentration): higher than glucose control

## O=C(O)c1ccc(C(=O)O)cc1 [TPA, terephthalic acid]
[1]
  cell growth (cell concentration): No cell growth was observed
[2]; acidic pH
  solubility in water: insoluble
[2]; alkaline conditions
  solubility in water: water soluble

## O [Water]
[3]
  pH before reaction: 7.6
  pH after reaction, PET: 3.4
  pH after reaction, PLA: 3.4

## C[N+](C)(C)CCO.C[N+](C)(C)CCO.C[N+](C)(C)CCO.O=P([O-])([O-])[O-] [[Ch]3[Phos], cholinium phosphate]
[3]
  pH before reaction: 12.7
  pH after reaction, PET: 7.7
  pH after reaction, PLA: 8.1

## C[N+](C)(C)CCO.NCCCC[C@H](N)C(=O)[O-] [[Ch][Lys], cholinium lysinate]
[4]; [7]
  depolymerization of PET: Up to 100%
[4]; [8]
  TPA yield (product yield from PET): 44.5%
  depolymerization efficiency of PET: 52.7%
[5]; [9]
  LA yield (product yield from PLA): 39.3%
  depolymerization efficiency of PLA: 40.2%
[5]; [7]
  depolymerization of PLA: Up to 100%
[6]; 10 wt % IL loading, 2 h
  depolymerization efficiency of PET/PLA mixture: 50.8%
[6]; 45 wt % IL loading, 2 h
  LA yield from PET/PLA mixture: 93.8%
  TPA yield from PET/PLA mixture: 79.6%
[6]; 60 wt % IL loading, 2 h
  LA yield from PET/PLA mixture: 53.1%
  TPA yield from PET/PLA mixture: 77.2%
  depolymerization efficiency of PET/PLA mixture: 99.5%
[6]; [10]
  LA yield from PET/PLA mixture: 40.9%
  TPA yield from PET/PLA mixture: 1.5%
  depolymerization efficiency of PET/PLA mixture: 91.5%
[6]; 90 wt % IL loading, 6 h
  LA yield from PET/PLA mixture, change versus 2 h: decreased by half
  TPA yield from PET/PLA mixture: 1.6%
  depolymerization of PET/PLA mixture: 97.1%
[3]
  pH before reaction: 11.8
  pH after reaction, PET: 11.0
  pH after reaction, PLA: 11.1
[1]; media prepared with only [Ch][Lys] (IL control)
  cell growth: contributor to the cell growth

## C[N+](C)(C)CCO.O=C([O-])[C@H](O)[C@@H](O)[C@H](O)[C@H](O)CO [[Cholinium][Gluconate], cholinium gluconate]
[4]; another experiment, PET depolymerization
  TPA yield higher over [Ch][Lys]: 100%

## CCn1cc[n+](C)c1.[Cl-] [[Emim]Cl, 1-ethyl-3-methylimidazolium chloride]
[3]
  pH before reaction: 6.4
  pH after reaction, PET: 4.5
  pH after reaction, PLA: 3.2

## CC(=O)[O-].CCn1cc[n+](C)c1 [[Emim][Ac], 1-ethyl-3-methylimidazolium acetate]
[3]
  pH before reaction: 7.1
  pH after reaction, PET: 6.8
  pH after reaction, PLA: 7.2
